Test results as given in patent US5614504A, “Method of making inosine monophosphate derivatives and immunopotentiating uses thereof” (The University of South Florida, priority 1995, dated 1997).

Assays:
[1] = system: anti-HBs; assay: Anti-HBs responses in immunocompromised irradiated DBA/2 mice (EIA); type: in vivo; settings: for anti-HBs, Day 21: p < 0.01
Procedure: Experimental mice were irradiated at a dose rate of 25 rad/min (1 rad=0.01 Gy) using a ^60 Coγ beam source for four minutes. Data represent the average of ten animals in each group.
Serum specimens from immunized mice were tested for the presence of anti-HBs in an enzyme immunoassay (EIA) using the diagnostic kits of Roche Diagnostica as per the manufacturer's instructions. The anti-HBs EIA kit (Roche), has a sensitivity of <10 IU/1.
Antibody concentration was determined with the help of calibration curves designed on the basis of the results of anti-HBs detection in standard serum panel (Roche Diagnostica) with the concentrations, as follows: 10 IU/l; 50 IU/l; 100 IU/l and 150 IU/l. The results of the two experiments were used for the calculation of mean values.
In a second set of experiments, the effect of MIMP on the induction of a specific immune response to HBsAg in immunocompromised DBA/2 mice subjected to ionizing radiation was analyzed using the same vaccination schemes as set forth for the control DBA/2.

[2] = system: delayed-type hypersensitivity response; assay: Delayed-type hypersensitivity in vivo (footpad swelling, SRBC); parameters: species or system mice
Procedure: Mice were immunized by intraperitoneal administration of SRBC in graded doses of from 10^6 to 10^9 cells. […] A dose of 10^7 was chosen to immunize animals in this study.
Four days following immunization, each mouse was challenged by injecting the left hind footpad subcutaneously with 10^8 SRBC in 50 μl phosphate buffered saline (PBS). Vehicle (50 μl PBS) was injected subcutaneously into the right hind footpad as a control. The compounds being tested were injected intraperitoneally either at the time of immunization or at the time of elicitation. After 24 hours of challenge, footpad swelling was measured as the increase in footpad thickness (left minus right) using Engineer's calipers.
The results are expressed as increments of footpad thickness in 0.1 mmunits. The characteristics of delayed-type hypersensitivity measured in this way have been described previously in MacDonald et al. (1979). FIGS. 13 and 14 show the results of this testing.

[3] = system: murine splenocytes; assay: Murine splenocyte proliferation with PHA or LPS; type: cell-based, BALB/c mice; settings: for tritiated thymidine incorporation, LPS 10 μg/ml / tritiated thymidine incorporation, PHA 0.5 μg/ml: mean CPM±SEM
Procedure: In vitro: Both human peripheral blood lymphocytes (HPBL) and mouse spleen lymphocytes (MSL) were employed. Proliferation was assayed by tritiated thymidine incorporation, as described in Hadden et al. (1975) and Hadden et al. (1986). For HPBL transformation, PHA and PWM were used at 0.5 μg/ml. For MSL transformation, Con A was used at 0.5 μg/ml, phytohemagglutinin (PHA, Murex Diagnostics, Atlanta, Ga.) at 0.5 μg/ml and lipopolysaccharide endotoxin (LPS, Sigma, St. Louis, Mo.) at 10 μg/ml. When protected-IMP derivatives were added, they were added at the onset of culture at varying concentrations ranging from 0.1 μg/ml to 100 μg/ml.
Murine splenocytes were obtained from BALB/c mice, 4-12 months old, by standard procedures (Hadden et al., 1975). They were cultured in microwell plates at 1.5×10^6 cells/ml of minimal essential media (MEM, Gibco Labs, Grand Island, N.Y.) with 5% fetal calf serum (FCS, Hyclone Labs, Logan, Utah) and tested for their proliferative response to mitogens as measured by incorporation of (^3 H) tritiated thymidine (New England Nuclear, Wilmington Del., […]; 2.5 μCi/ml) during a terminal pulse followed by liquid scintillation spectrometry. Human cells were seeded at […] and cultured for 48 hours with an 18 hour pulse with ^3 H-thymidine.
In a further experiment, murine splenocytes were incubated with PHA or LPS and MIMP (1-100 μg/ml). […] Splenocyte responses to PHA preferentially reflect T lymphocyte responses, confirming the responses seen with ConA. The LPS responses also parallel the previous experiment.
The data was obtained from four different animals and represent quadruplicate samples for each concentration. They are expressed as mean CPM±SEM, with * showing a significance of p<0.05 and ** showing p<0.01.

[4] = scheme 6: Radiation + scheme N2 (HBsAg + MIMP per os)
[5] = scheme 7: Radiation + scheme N3 (HBsAg + MIMP i.p. then per os)

COP(=O)(O)OC[C@H]1O[C@@H](n2cnc3c(=O)[nH]cnc32)[C@H](O)[C@@H]1O [Me-IMP, Methyl-5'-inosine-monophosphate]
anti-HBs, Day 14 [1, 4]: < 10 IU/1
anti-HBs, Day 21 [1, 4]: 100 IU/1
anti-HBs, Day 14 [1, 5]: < 10 IU/1
anti-HBs, Day 21 [1, 5]: 100 IU/1
delayed-type hypersensitivity response ([2]; one dose i.p. at the time of challenge): not significant
delayed-type hypersensitivity response ([2]; one dose i.p. at the time of immunization): significantly stimulated
tritiated thymidine incorporation, LPS 10 μg/ml ([3]; MIMP 1 μg/ml): 47261 ± 997 CPM
tritiated thymidine incorporation, PHA 0.5 μg/ml ([3]; MIMP 1 μg/ml): 106647 ± 4917 CPM
tritiated thymidine incorporation, LPS 10 μg/ml ([3]; MIMP 10 μg/ml, p<0.05): 57481 ± 2343 CPM
tritiated thymidine incorporation, PHA 0.5 μg/ml ([3]; MIMP 10 μg/ml, p<0.05): 117247 ± 6500 CPM
tritiated thymidine incorporation, PHA 0.5 μg/ml ([3]; MIMP 100 μg/ml, p<0.01): 124801 ± 6630 CPM
tritiated thymidine incorporation, LPS 10 μg/ml ([3]; MIMP 100 μg/ml, p<0.05): 55153 ± 6176 CPM
splenocyte responses in the absence of mitogens ([3]; MIMP 1-100 μg/ml): did not affect
proliferative responses in the presence of mitogens ([3]; MIMP 1-100 μg/ml, PHA or LPS): progressively and significantly augumented
